In experiment [1] the test system is breast cancer cell line (MDA-MB-231). Nature of the experiment: Cell growth inhibition and apoptosis induction, breast cancer cell line. Format: cell-based. Conditions: for growth inhibition and apoptosis-inducing effects: 0.05-10 μM, 0-96 hours; for growth inhibition and apoptosis-inducing effects (cell images, MTT assay, FIG. 6): compared to the untreated control, 48 hours images, 96 hours MTT. As to the method: (§1) An embryonic kidney cell line (293T), a breast cancer cell line (MDA-MB-231), and colon cancer cell lines (HCT116 and HT29) were inoculated in a 96-well plate at a density of 3,000 cells/well, and 50 μL of a culture fluid was added thereto. The resulting mixture was cultured for an hour under 37° C./5% CO2 conditions. Each of the peptides prepared in Example 3 was added at an increasing concentration of 0.05, 1, 2, 3 and 10 μM to the well plate inoculated with each of the cell lines, and the resulting mixture was cultured for 0, 24, 48, 72 and 96 hours under 37° C./5% CO2 conditions. When the culture was completed, the cells were observed and their morphological changes were imaged using an inverted phase contrast microscope.
For orientation: Tetrazolium assays rely on reduction of a dye to a coloured formazan, in cell work by metabolically active cells.

Experiment [2] deals with embryonic kidney cell line (293T). In words: Cell growth inhibition and apoptosis induction, embryonic kidney cell line. Type of experiment: cell-based. Conditions: for growth inhibition and apoptosis-inducing effects: 0.05-10 μM, 0-96 hours; for growth inhibition and apoptosis-inducing effects (cell images, MTT assay, FIG. 6): compared to the untreated control, 48 hours images, 96 hours MTT. On the procedure:
as §1

The subject of experiment [3] is colon cancer cell line HCT116. Nature of the experiment: Cell growth inhibition and apoptosis induction, colon cancer cell line HCT116. Format: cell-based. To be noted: for growth inhibition and apoptosis-inducing effects: 0.05-10 μM, 0-96 hours; for growth inhibition and apoptosis-inducing effects (cell images, MTT assay, FIG. 6): compared to the untreated control, 48 hours images, 96 hours MTT. As to the method: as §1

Experiment [4] deals with colon cancer cell line HT29. Nature of the experiment: Cell growth inhibition and apoptosis induction, colon cancer cell line HT29. Conditions: for growth inhibition and apoptosis-inducing effects: 0.05-10 μM, 0-96 hours; for growth inhibition and apoptosis-inducing effects (cell images, MTT assay, FIG. 6): compared to the untreated control, 48 hours images, 96 hours MTT. Type of experiment: cell-based. As to the method:
as §1

For another experiment, the system named is liver cancer cells. Nature of the experiment: Growth inhibition and apoptosis in liver cancer cells. Type of experiment: cell-based. Conditions: compared with Peptide 5-2C.
A further experiment concerns leukemia cells. Nature of the experiment: Growth inhibition and apoptosis in leukemia cells. Format: cell-based. To be noted: compared with Peptide 5-2C.
Another experiment has as its system breast cancer cells. In words: Growth inhibition and apoptosis in breast cancer cells. Format: cell-based. To be noted: compared with Peptide 5-2C.
Experiment [5] has as its system liver cancer cell line (Hep3B). Nature of the experiment: Cell growth inhibition and apoptosis, liver cancer cell line (MTT, CCK, Crystal Violet). Type of experiment: cell-based. Conditions: Hep3B treated once with peptide; compared to 5-2C-treated group. The text has this: The peptides were used to analyze effects on cell growth inhibition and apoptosis in the liver cancer cell line (Hep3B). FIGS. […] 8C and 8D graphically show the growth inhibition and apoptosis-inducing effects of the respective peptides at different concentrations. […] Therefore, it can be seen that the peptide of SEQ ID NO: 1 according to the present invention is a peptide having a sequence composed of an optimized number of amino acids to have anticancer activity.

The test system of a further experiment is kidney-derived cells. In words: Growth inhibition and apoptosis in kidney-derived cells. Format: cell-based. To be noted: compared with Peptide 5-2C.
The subject of another experiment is colon cancer cells. Nature of the experiment: Growth inhibition and apoptosis in colon cancer cells. Type of experiment: cell-based. Conditions: compared with Peptide 5-2C.
The subject of another experiment is various cells. Nature of the experiment: IC50 in various cells (MTT, FIG. 16). Type of experiment: cell-based. To be noted: compared with Peptide 5-2C.
The test system of a further experiment is cancer cells. To be noted: cell and mouse xenograft models; Grant et al. 2012; cited from earlier work.

For the compound Ac-PQRcrgdkgpdc-amide [Peptide 5-2-32C], in [1], the “growth inhibition and apoptosis-inducing effects” value is “no growth inhibition and apoptosis-inducing effects at all”.
Turning to “Ac-NYPQRcrgdkgpdc-amide [Peptide 5-2-51C]”, the “growth inhibition and apoptosis-inducing effects” value in experiment [2] is “exhibited growth inhibition and apoptosis-inducing effects”; in experiment [3], “exhibited growth inhibition and apoptosis-inducing effects”; in experiment [1] it was “exhibited growth inhibition and apoptosis-inducing effects”; in experiment [4], “exhibited growth inhibition and apoptosis-inducing effects”. Further, the “growth inhibition and apoptosis-inducing effects (cell images, MTT assay, FIG. 6)” value in [2] was “superior growth inhibition and apoptosis-inducing effects”; in experiment [3], “superior growth inhibition and apoptosis-inducing effects”; in [1], “superior growth inhibition and apoptosis-inducing effects”; in [4], “superior growth inhibition and apoptosis-inducing effects”.
In the case of “Ac-YPQRPcrgdkgpdc-amide [Peptide 5-2-52C]”, the “growth inhibition and apoptosis-inducing effects” value was “exhibited growth inhibition and apoptosis-inducing effects” in experiment [2]; “exhibited growth inhibition and apoptosis-inducing effects” in experiment [3]; “exhibited growth inhibition and apoptosis-inducing effects” in experiment [1]; “exhibited growth inhibition and apoptosis-inducing effects” in [4]. For the same compound, the “growth inhibition and apoptosis-inducing effects (cell images, MTT assay, FIG. 6)” value in experiment [2] is “superior growth inhibition and apoptosis-inducing effects”; in experiment [3] it was “superior growth inhibition and apoptosis-inducing effects”; in [1] it was “superior growth inhibition and apoptosis-inducing effects”; in experiment [4], “superior growth inhibition and apoptosis-inducing effects”.
For the compound CRGDKGPDC [iRGD, reference compound], the “growth inhibition and apoptosis-inducing effects” value in experiment [1] is “no growth inhibition and apoptosis-inducing effects at all”.
Regarding Ac-YPQRcrgdkgpdc-amide [Peptide 5-2-4C], the “growth inhibition and apoptosis-inducing effects” value is “exhibited growth inhibition and apoptosis-inducing effects” in experiment [2]; “exhibited growth inhibition and apoptosis-inducing effects” in experiment [3]; “exhibited growth inhibition and apoptosis-inducing effects” in [1]; “exhibited growth inhibition and apoptosis-inducing effects” in experiment [4]. Moreover, the “growth inhibition and apoptosis-inducing effects (cell images, MTT assay, FIG. 6)” value in experiment [2] was “superior growth inhibition and apoptosis-inducing effects”; in experiment [3], “superior growth inhibition and apoptosis-inducing effects”; in experiment [1], “superior growth inhibition and apoptosis-inducing effects”; in experiment [4] it was “superior growth inhibition and apoptosis-inducing effects”. The “growth inhibition and apoptosis” value in the experiment with liver cancer cells, in the experiment with leukemia cells, with breast cancer cells, in the experiment with kidney-derived cells and with colon cancer cells was “a tendency very similar to Peptide 5-2C” throughout. Moreover, the “change in IC50 values observed for 3 days” value in experiment [5] is given as “steadily decreasing over 3 days, a level of which was highly similar to that of Peptide 5-2C”. Also, the “IC50 value at 48 hours” value with various cells is reported as “very similar to that of Peptide 5-2C”.
As for Ac-YPQcrgdkgpdc-amide [Peptide 5-2-31C], the “growth inhibition and apoptosis-inducing effects” value in [1] was “no growth inhibition and apoptosis-inducing effects at all”.
Consider `CCOc1ccccc1C1CC(=O)Nc2cc3c(cc21)OCO3` (centres unmarked) [FQI1, Factor Quinolinone Inhibitor 1], for which the “inhibition of cancer cells versus normal cells” value in the experiment on cancer cells was “successful in inhibiting only the cancer cells without exerting any influence on normal cells”.

Source of the values: US10654889B2, “Peptide having anticancer activity, and pharmaceutical composition, health functional food composition and functional cosmetic composition for preventing and treating cancer comprising the same as active ingredient” (INDUSTRY-UNIVERSITY COOPERATION FOUNDATION HANYANG …, priority 2016, dated 2020).
